{"source": "ChEMBL document CHEMBL5344441", "about": "“Discovery and Preclinical Pharmacology of NX-2127, an Orally Bioavailable Degrader of Bruton's Tyrosine Kinase with Immunomodulatory Activity for the Treatment of Patients with B Cell Malignancies” (J Med Chem, 2024)", "key": {"[1]": {"target": "T1, Protein cereblon/Tyrosine-protein kinase BTK (Homo sapiens, UniProt Q06187+Q96SW2)", "assay": "PROTAC activity at CRBN/BTK in human TMD8 cells assessed as degradation of BTK protein incubated for 4 hrs by HTRF assay", "assay_type": "cell-based"}, "[2]": {"assay": "Plasma protein binding in mouse", "assay_type": "ADME, cell-free", "settings": "read-out: PPB"}, "[3]": {"assay": "Plasma protein binding in dog", "assay_type": "ADME, cell-free, Canis lupus familiaris", "settings": "read-out: PPB (converted)"}, "[4]": {"assay": "Plasma protein binding in cynomolgus monkey", "assay_type": "ADME, cell-free, Macaca fascicularis", "settings": "read-out: PPB (converted)"}, "[5]": {"assay": "Plasma protein binding in human", "assay_type": "ADME, cell-free", "settings": "read-out: PPB (converted)"}, "[6]": {"assay": "Observed clearance in mouse at 1 mg/kg,iv", "assay_type": "ADME, organism-based", "settings": "in vivo"}, "[7]": {"assay": "AUC in mouse at 10 mg/kg,po", "assay_type": "ADME, organism-based", "design": "dose 10 mg/kg, route po", "settings": "in vivo"}, "[8]": {"assay": "Observed clearance in rat at 1 mg/kg,iv", "assay_type": "ADME, organism-based", "settings": "in vivo"}, "[9]": {"assay": "Observed clearance in cynomolgus monkey at 1 mg/kg,iv", "assay_type": "ADME, organism-based, Macaca fascicularis", "settings": "in vivo"}, "[10]": {"assay": "AUC in dog at 10 mg/kg,po", "assay_type": "ADME, organism-based, Canis lupus familiaris", "design": "dose 10 mg/kg, route po", "settings": "in vivo"}, "[11]": {"assay": "AUC in cynomolgus monkey at 10 mg/kg,po", "assay_type": "ADME, organism-based, Macaca fascicularis", "design": "dose 10 mg/kg, route po", "settings": "in vivo"}, "[12]": {"assay": "Cmax in dog at 10 mg/kg,po", "assay_type": "ADME, organism-based, Canis lupus familiaris", "design": "dose 10 mg/kg, route po", "settings": "in vivo"}, "[13]": {"assay": "Oral bioavailability in dog at 10 mg/kg", "assay_type": "ADME, organism-based, Canis lupus familiaris", "settings": "in vivo"}, "[14]": {"target": "T1, Protein cereblon/Tyrosine-protein kinase BTK", "assay": "PROTAC activity at CRBN/BTK in human PBMC cells asessed as degradation of BTK protein at 50 nM incubated for 4 hrs by proteomics assay based LC-MS/MS analysis", "assay_type": "cell-based"}, "[15]": {"assay": "Drug uptake in BALB/c mouse plasma at po administration", "assay_type": "ADME, organism-based", "settings": "in vivo"}, "[16]": {"assay": "Drug uptake in cynomolgus monkey plasma at po administration measured for 24 hrs", "assay_type": "ADME, organism-based, Macaca fascicularis", "settings": "in vivo"}, "[17]": {"assay": "Cmax in cynomolgus monkey at 10 mg/kg,po administration for 1 day", "assay_type": "ADME, organism-based, Macaca fascicularis", "design": "time 1 day, dose 10 mg/kg, route po", "settings": "in vivo, 24 h"}, "[18]": {"assay": "AUClast in cynomolgus monkey at 10 mg/kg,po administration for 1 day", "assay_type": "ADME, organism-based, Macaca fascicularis", "design": "dose 10 mg/kg, time 1 day, route po", "settings": "in vivo"}, "[19]": {"target": "T2, Protein cereblon-BTK (Macaca fascicularis) (UniProt A0A2K5UTB3+A0A7N9IGT8)", "T2 sequence (A0A2K5UTB3 1-488)": "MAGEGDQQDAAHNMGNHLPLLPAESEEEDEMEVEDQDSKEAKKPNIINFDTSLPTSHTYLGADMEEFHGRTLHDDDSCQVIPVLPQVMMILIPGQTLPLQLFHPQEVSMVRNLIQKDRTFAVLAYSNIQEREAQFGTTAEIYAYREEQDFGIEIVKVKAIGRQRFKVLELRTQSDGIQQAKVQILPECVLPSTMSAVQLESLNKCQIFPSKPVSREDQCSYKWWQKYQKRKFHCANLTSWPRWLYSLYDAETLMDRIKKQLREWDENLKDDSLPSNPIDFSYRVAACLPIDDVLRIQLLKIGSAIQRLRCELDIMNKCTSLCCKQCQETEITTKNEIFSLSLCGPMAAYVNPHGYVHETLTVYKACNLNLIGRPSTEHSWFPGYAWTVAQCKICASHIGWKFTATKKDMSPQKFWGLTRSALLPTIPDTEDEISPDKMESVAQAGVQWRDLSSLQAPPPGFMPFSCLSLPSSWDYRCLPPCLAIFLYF", "T2 sequence (A0A7N9IGT8 entry or part of it partner)": "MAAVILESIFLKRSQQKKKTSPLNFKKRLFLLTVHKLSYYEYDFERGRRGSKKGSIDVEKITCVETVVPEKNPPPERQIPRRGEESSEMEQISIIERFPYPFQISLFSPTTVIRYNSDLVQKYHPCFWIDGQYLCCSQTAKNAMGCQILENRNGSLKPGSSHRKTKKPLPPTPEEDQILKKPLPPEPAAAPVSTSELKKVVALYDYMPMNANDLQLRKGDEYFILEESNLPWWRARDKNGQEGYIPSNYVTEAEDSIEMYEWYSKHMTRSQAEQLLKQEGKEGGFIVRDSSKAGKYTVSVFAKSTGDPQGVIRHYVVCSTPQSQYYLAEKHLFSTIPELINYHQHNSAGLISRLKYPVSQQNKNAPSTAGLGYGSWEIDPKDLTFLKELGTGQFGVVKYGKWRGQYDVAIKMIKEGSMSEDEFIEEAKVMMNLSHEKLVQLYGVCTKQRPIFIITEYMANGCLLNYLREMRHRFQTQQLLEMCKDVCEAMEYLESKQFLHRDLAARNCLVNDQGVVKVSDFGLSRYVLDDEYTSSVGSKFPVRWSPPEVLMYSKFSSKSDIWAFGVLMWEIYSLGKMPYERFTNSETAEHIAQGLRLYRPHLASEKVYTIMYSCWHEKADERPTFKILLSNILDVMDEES", "assay": "In vivo protac activity at CRBN/BTK in cynomolgus monkey assessed as degradation of BTK protein at po administration measured after 24 hrs by flow cytomtery", "assay_type": "functional, organism-based"}, "[20]": {"target": "T2, Protein cereblon-BTK (Macaca fascicularis)", "assay": "In vivo protac activity at CRBN/BTK in cynomolgus monkey assessed as remaining BTK protein in B cells at 30 mg/kg,po administration for 1 day by flow cytomtery relative to control", "assay_type": "functional, organism-based"}, "[21]": {"target": "T3, Protein cereblon/Zinc finger protein Aiolos (Macaca fascicularis) (UniProt A0A2K5UTB3+A0A2K5VJM3)", "T3 sequence (A0A2K5UTB3 1-488)": "as the sequence (A0A2K5UTB3 1-488) above", "T3 sequence (A0A2K5VJM3 entry or part of it partner)": "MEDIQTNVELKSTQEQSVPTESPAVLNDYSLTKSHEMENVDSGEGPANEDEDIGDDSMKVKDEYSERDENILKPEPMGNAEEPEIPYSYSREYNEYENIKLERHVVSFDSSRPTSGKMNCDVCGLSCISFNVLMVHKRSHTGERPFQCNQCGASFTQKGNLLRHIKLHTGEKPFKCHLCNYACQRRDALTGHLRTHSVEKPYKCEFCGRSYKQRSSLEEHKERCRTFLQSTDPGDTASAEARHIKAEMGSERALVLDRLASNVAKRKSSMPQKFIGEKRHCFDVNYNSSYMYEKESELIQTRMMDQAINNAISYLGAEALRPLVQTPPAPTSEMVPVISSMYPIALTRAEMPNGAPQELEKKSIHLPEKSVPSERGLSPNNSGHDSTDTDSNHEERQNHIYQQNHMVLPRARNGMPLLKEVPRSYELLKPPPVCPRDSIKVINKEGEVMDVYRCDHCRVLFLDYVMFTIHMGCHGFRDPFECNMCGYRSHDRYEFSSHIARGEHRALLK", "assay": "In vivo protac activity at CRBN/IKZF3 in cynomolgus monkey assessed as degradation of IKZF3 protein at 10 to 100 mg/kg,po administration by flow cytomtery", "assay_type": "functional, organism-based", "settings": "dose 10-100 mg/kg"}, "[22]": {"target": "T3, Protein cereblon/Zinc finger protein Aiolos (Macaca fascicularis)", "assay": "In vivo protac activity at CRBN/IKZF3 in cynomolgus monkey assessed as degradation of IKZF3 protein at 100 mg/kg,po administration for 14 days by flow cytomtery relative to control", "assay_type": "functional, organism-based", "settings": "time 14.0 day"}, "[23]": {"target": "T4, Protein cereblon/Tyrosine-protein kinase BTK (Mus musculus) (UniProt P35991+Q8C7D2)", "T4 sequence (P35991 whole entry, looked up)": "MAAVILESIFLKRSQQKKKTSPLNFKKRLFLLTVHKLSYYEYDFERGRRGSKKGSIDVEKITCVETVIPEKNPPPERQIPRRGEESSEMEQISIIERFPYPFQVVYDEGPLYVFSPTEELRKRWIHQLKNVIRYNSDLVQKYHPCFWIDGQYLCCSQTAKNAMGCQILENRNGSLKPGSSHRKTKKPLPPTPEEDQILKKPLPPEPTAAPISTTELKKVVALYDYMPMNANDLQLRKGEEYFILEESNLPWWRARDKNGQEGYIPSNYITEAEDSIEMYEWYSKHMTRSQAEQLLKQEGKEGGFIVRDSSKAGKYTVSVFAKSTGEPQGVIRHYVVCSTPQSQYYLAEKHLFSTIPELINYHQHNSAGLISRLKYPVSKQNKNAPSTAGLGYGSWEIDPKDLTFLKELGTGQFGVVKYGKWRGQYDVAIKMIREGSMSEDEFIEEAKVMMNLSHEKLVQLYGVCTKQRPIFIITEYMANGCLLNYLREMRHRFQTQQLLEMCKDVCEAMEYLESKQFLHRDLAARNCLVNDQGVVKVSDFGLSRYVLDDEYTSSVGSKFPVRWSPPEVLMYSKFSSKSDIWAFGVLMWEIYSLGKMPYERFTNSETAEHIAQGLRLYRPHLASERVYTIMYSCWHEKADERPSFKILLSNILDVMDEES", "T4 sequence (Q8C7D2 whole entry, looked up)": "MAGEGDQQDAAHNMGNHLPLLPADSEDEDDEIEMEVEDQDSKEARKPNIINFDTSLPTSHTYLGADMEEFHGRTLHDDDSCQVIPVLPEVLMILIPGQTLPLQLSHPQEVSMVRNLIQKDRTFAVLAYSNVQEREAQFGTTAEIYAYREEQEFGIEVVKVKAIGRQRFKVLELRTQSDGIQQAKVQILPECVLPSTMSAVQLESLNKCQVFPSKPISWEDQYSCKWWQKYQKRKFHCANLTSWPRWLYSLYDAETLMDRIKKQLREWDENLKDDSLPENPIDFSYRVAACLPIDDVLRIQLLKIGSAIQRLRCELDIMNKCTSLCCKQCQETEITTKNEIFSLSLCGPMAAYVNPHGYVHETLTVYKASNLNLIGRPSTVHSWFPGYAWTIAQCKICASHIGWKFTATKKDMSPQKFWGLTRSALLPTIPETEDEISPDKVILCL", "assay": "In vivo protac activity at CRBN/BTK in CB17-SCID mouse assessed as degradation of BTK protein in B cells at 10 to 90 mg/kg,po administration for 25 days by flow cytomtery", "assay_type": "functional, organism-based", "settings": "dose 10-90 mg/kg, time 25.0 day"}, "[24]": {"target": "Protein cereblon/Zinc finger protein Aiolos (Homo sapiens, UniProt Q96SW2+Q9UKT9)", "assay": "In vivo protac activity at CRBN/IKZF3 in CB17-SCID mouse xenografted with human TMD8 cells assessed as degradation of IKZF3 protein in tumor at 10 to 90 mg/kg,po administration for 25 days by flow cytomtery", "assay_type": "functional, organism-based", "settings": "dose 10-90 mg/kg, time 25.0 day"}, "[25]": {"system": "TMD8", "assay": "Antitumor activity against human TMD8 cells expressing wild type BTK xenografted in CB17-SCID mouse assessed as tumor growth inhibition at 10 mg/kg,po administration for 25 days", "assay_type": "functional", "settings": "TMD8, 600 h, time 25 day, read-out: TGI"}, "[26]": {"system": "TMD8", "assay": "Antitumor activity against human TMD8 cells expressing wild type BTK xenografted in CB17-SCID mouse assessed as tumor growth inhibition at 30 mg/kg,po administration for 25 days", "assay_type": "functional", "settings": "TMD8, 600 h, time 25 day, read-out: TGI"}, "[27]": {"system": "TMD8", "assay": "Antitumor activity against human TMD8 cells expressing wild type BTK xenografted in CB17-SCID mouse assessed as tumor growth inhibition at 90 mg/kg,po administration for 25 days", "assay_type": "functional", "settings": "TMD8, 600 h, time 25 day, read-out: TGI"}, "[28]": {"system": "TMD8", "assay": "Antitumor activity against human TMD8 cells expressing BTK C481S mutant xenografted in CB17-SCID mouse assessed as tumor growth inhibition at 90 mg/kg,po administration for 25 days", "assay_type": "functional", "settings": "TMD8, 600 h, time 25 day, read-out: TGI"}, "[29]": {"target": "Voltage-gated inwardly rectifying potassium channel KCNH2 (Homo sapiens, UniProt Q12809)", "sequence (Q12809 whole entry)": "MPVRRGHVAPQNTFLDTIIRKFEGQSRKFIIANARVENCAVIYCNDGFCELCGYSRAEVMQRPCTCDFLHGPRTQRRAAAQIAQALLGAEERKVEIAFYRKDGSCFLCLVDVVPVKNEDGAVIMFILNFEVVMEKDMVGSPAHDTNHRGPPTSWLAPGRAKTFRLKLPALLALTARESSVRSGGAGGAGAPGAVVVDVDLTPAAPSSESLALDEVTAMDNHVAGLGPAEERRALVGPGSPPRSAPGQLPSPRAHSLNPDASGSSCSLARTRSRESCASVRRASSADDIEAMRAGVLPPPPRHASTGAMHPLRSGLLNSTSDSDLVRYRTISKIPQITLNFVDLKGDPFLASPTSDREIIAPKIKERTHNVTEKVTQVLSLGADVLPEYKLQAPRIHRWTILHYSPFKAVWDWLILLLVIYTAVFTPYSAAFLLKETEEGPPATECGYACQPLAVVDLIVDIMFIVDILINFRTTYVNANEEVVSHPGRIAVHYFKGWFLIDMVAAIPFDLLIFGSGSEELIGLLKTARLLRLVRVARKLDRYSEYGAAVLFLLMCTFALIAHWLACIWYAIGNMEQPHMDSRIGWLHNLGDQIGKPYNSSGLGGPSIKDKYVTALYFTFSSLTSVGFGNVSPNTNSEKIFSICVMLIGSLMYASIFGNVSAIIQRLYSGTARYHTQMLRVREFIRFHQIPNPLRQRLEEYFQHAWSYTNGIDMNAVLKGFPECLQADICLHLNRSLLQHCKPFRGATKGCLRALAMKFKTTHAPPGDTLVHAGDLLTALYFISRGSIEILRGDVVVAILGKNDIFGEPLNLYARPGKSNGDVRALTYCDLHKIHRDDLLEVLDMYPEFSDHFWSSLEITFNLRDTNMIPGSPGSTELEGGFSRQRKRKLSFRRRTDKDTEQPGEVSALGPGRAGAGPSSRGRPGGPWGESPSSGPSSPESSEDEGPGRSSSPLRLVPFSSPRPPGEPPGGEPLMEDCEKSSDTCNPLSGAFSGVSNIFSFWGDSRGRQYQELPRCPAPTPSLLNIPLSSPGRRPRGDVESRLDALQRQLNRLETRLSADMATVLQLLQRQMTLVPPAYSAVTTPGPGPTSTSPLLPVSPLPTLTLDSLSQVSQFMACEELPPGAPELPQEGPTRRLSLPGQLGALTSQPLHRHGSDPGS", "assay": "Inhibition of human ERG", "assay_type": "toxicity"}, "[30]": {"target": "Cytochrome P450 3A4 (Homo sapiens, UniProt P08684)", "assay": "Inhibition of CYP3A4 (unknown origin)", "assay_type": "ADME"}, "[31]": {"target": "Cytochrome P450 2C9 (Homo sapiens, UniProt P11712)", "assay": "Inhibition of CYP2C9 (unknown origin)", "assay_type": "ADME"}, "[32]": {"target": "Cytochrome P450 2C19 (Homo sapiens, UniProt P33261)", "assay": "Inhibition of CYP2C19 (unknown origin)", "assay_type": "ADME"}, "[33]": {"target": "Cytochrome P450 1A2 (Homo sapiens, UniProt P05177)", "assay": "Inhibition of CYP1A2 (unknown origin)", "assay_type": "ADME"}, "[34]": {"target": "Tyrosine-protein kinase BTK (Homo sapiens, UniProt Q06187, C481S)", "sequence (Q06187 2-659 C481S limits assumed)": "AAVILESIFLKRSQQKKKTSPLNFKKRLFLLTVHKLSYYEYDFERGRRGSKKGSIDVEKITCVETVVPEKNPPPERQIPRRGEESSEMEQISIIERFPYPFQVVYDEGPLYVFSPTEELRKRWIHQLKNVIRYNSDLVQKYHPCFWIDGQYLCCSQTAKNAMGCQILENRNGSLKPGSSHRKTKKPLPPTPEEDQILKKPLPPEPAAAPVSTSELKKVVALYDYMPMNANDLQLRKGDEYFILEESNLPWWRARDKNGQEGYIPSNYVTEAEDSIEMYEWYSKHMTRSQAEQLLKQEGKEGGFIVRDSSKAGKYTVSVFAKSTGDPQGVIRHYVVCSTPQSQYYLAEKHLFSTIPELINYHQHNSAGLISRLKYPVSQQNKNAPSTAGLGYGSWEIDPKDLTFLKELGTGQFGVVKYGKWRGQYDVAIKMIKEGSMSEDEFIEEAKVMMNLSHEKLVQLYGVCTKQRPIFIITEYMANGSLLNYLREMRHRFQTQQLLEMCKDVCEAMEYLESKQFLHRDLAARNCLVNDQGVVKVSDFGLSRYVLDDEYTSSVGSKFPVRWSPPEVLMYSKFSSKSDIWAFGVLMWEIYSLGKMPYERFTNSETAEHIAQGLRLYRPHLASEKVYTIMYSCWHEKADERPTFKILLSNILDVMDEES", "assay": "Binding affinity to BTK C481S mutant (unknown origin) assessed as dissociation constant by surface plasmon resonance assay"}, "[35]": {"target": "T4, Protein cereblon/Tyrosine-protein kinase BTK (Mus musculus)", "assay": "In vivo protac activity at CRBN/BTK in BALB/c mouse assessed as residual BTK protein in blood at 3 mg/kg,po administration measured after 24 hrs by flow cytomtery relative to control"}, "[36]": {"target": "T4, Protein cereblon/Tyrosine-protein kinase BTK (Mus musculus)", "assay": "In vivo protac activity at CRBN/BTK in BALB/c mouse assessed as residual BTK protein in blood at 0.3 mg/kg,po administration measured after 24 hrs by flow cytomtery relative to control"}}, "note": "Activity calls are given as the source filed them. The rule behind the calls is not given here."}
{"smiles": "NC(=O)c1ncc(N2CCCCC2)nc1Nc1ccc(C2CCN(C[C@H]3CCN(c4ccc5c(c4)C(=O)N(C4CCC(=O)NC4=O)C5=O)C3)CC2)cc1", "note": "(stereo partly specified) [ZELEBRUDOMIDE]", "values": [{"measurement": "DC50", "setting": "[1]", "value": 0.0045, "unit": "µM"}, {"measurement": "fraction unbound", "setting": "[2]", "value": "< 0.015"}, {"measurement": "fraction unbound", "setting": "[3]", "value": 0.025}, {"measurement": "fraction unbound", "setting": "[4]", "value": 0.046}, {"measurement": "fraction unbound", "setting": "[5]", "value": 0.063}, {"measurement": "clearance", "setting": "[6]", "value": 5.2, "unit": "mL/min/kg"}, {"measurement": "AUC", "setting": "[7]", "value": 16, "unit": "µM·h"}, {"measurement": "clearance", "setting": "[8]", "value": 19, "unit": "mL/min/kg"}, {"measurement": "clearance", "setting": "[9]", "value": 22.2, "unit": "mL/min/kg"}, {"measurement": "AUC", "setting": "[10]", "value": 0.13, "unit": "µM·h"}, {"measurement": "AUC", "setting": "[11]", "value": 0.09, "unit": "µM·h"}, {"measurement": "Cmax", "setting": "[12]", "value": 31, "unit": "nM"}, {"measurement": "bioavailability", "setting": "[13]", "value": 1, "unit": "%"}, {"measurement": "Activity", "setting": "[14]", "value": "Active"}, {"measurement": "Drug uptake", "setting": "[15]", "value": "Dose-Dependent Effect"}, {"measurement": "Drug uptake", "setting": "[16]", "value": "Dose-Dependent Effect"}, {"measurement": "Cmax", "setting": "[17]", "value": 26.9, "unit": "ng/mL"}, {"measurement": "AUC(0-t) at 24 h", "setting": "[18]", "value": 267, "unit": "ng·h/mL"}, {"measurement": "Activity", "setting": "[19]", "value": "Dose-Dependent Effect"}, {"measurement": "Activity", "setting": "[20]", "value": 9, "unit": "%"}, {"measurement": "Activity", "setting": "[21]", "value": "inactive"}, {"measurement": "Activity", "setting": "[22]", "value": 43, "unit": "%"}, {"measurement": "Activity", "setting": "[23]", "value": "Active"}, {"measurement": "Activity", "setting": "[24]", "value": "Active"}, {"measurement": "inhibition in vivo at 10 mg/kg", "setting": "[25]", "value": 35, "unit": "%"}, {"measurement": "inhibition in vivo at 30 mg/kg", "setting": "[26]", "value": 73, "unit": "%"}, {"measurement": "inhibition in vivo at 90 mg/kg", "setting": "[27]", "value": 99, "unit": "%"}, {"measurement": "inhibition in vivo at 90 mg/kg", "setting": "[28]", "value": 59, "unit": "%"}, {"measurement": "IC50", "setting": "[29]", "value": "> 30", "unit": "µM"}, {"measurement": "IC50", "setting": "[30]", "value": "> 30", "unit": "µM"}, {"measurement": "IC50", "setting": "[31]", "value": "> 30", "unit": "µM"}, {"measurement": "IC50", "setting": "[32]", "value": "> 30", "unit": "µM"}, {"measurement": "IC50", "setting": "[33]", "value": "> 30", "unit": "µM"}, {"measurement": "Kd", "setting": "[34]", "value": 0.018, "unit": "µM"}, {"measurement": "residual activity", "setting": "[35]", "value": 36, "unit": "%"}, {"measurement": "residual activity", "setting": "[36]", "value": 81, "unit": "%"}]}
